Assays:
Assay type in all cases: cell-based, human
[1] = test system: skin biopsy explants derived from abdominal dermal scar; assay: Organ culture of dermal scar explants, Movat's pentachrome stain; settings: 50 nM aldosterone alone or with 2 μM spironolactone
Method: In order to further test whether aldosterone and spironolactone would penetrate into skin tissue and affect elastogenesis, fragments of normal skin, stretch-marked skin and dermal scars were tested in organ culture system. Skin fragments were cut into multiple 1 mm^2 pieces and placed on top of metal grids immersed in culture medium containing 5% FBS and maintained for 10 days in the presence and absence of and then cultured for 7 days in the presence of 50 nM aldosterone, and 2 μM spironolactone, alone or in combinations, as described in figure legends. The media were changed every second day.
All organ cultures were fixed in 1% buffered formalin and their transversal serial histological sections were stained with Movat's pentachrome as previously described in Hinek et al. “Proteolytic digest derived from bovine Ligamentum Nuchae stimulates deposition of new elastin-enriched matrix in cultures and transplants of human dermal fibroblasts” J Dermatol Sci. September 2005; 39(3):155-66 hereby incorporated by reference in it's entirety. Morphometric analysis was performed as described above. In each analyzed group (three explants from each patient) low-power fields (1 mm^2) of 20 serial sections stained with Movat's pentachrome were analyzed and all structures stained black (elastic fibers) were counted.

[2] = test system: fibroblasts derived from patient with stretch marks; assay: Elastin immunostaining in 7-day cultures of fibroblasts from a patient with stretch marks; settings: 50 nM aldosterone alone or with 2 μM spironolactone; vs untreated control or spironolactone only
Method: Biological effects of aldosterone and spironolactone were tested in cultures of dermal fibroblasts derived from normal skin, stretch-marked skin and dermal scars derived from Caucasian females, of different ages ranging from 30-38 years old. All fibroblasts were originally isolated by allowing them to migrate out of skin explants and then passaged by trypsinization and maintained in alpha-minimum essential medium supplemented with 20 mM Hepes, 1% antibiotics and antimycotics, 1% L-Glutamate and 2% fetal bovine serum (FBS) as previously described Hinek et al. “Impaired elastic-fiber assembly by fibroblasts from patients with either Morquio B disease or infantile GM1-gangliosidosis is linked to deficiency in the 67-kD spliced variant of beta-galactosidase.” Am J Hum Genet. 2000 July; 67(1):23-36 hereby incorporated by reference in its entirety. In all experiments, consecutive passages 3-4 were tested. Cells were densely plated (50×10^5 cells/dish) to reach confluency and then cultured for 7 days in the presence and absence of different concentrations of (10 nM-1 μM) aldosterone, 2 μM spironolactone, alone or in combinations with other reagents, as described in figure legends. 7-day-old cultures of fibroblasts, which produce abundant ECM, were assessed. […]

collagen type I mRNA = assay: Collagen type I mRNA level by one-step RT-PCR in normal skin fibroblasts; settings: 24 h; 50 nM and 1 μM aldosterone, alone or with 2 μM spironolactone
Method: Fibroblasts were cultured to confluency in medium with 2% FBS and then in serum-free medium for 24 hours. The medium was changed again and cells were incubated for the next 24 hours in the presence and absence of in the presence of 50 nM and 1 μM aldosterone, and 2 μM spironolactone, alone or in combinations, as described in figure legend. At the end of the incubation period total RNA was extracted using the RNeasy Mini Kit, according to manufacturer's instructions. Steady-state levels of elastin mRNA were then analyzed by One-Step RT-PCR analysis. Briefly, 1 μg of total RNA was added to each one step RT-PCR (Qiagen One-Step RT-PCR Kit), and reactions were set up according to manufacturer's instructions in a total volume of 25 μl. The reverse transcription step was performed for elastin, and GAPDH reactions at 50° C. for 30 minutes, followed by 15 minutes at 95° C. The elastin PCR reaction (sense primer: [NT] ID NO: 1), antisense primer: [NT] ID NO: 2); designed to produce a 255 bp product) was performed under the following conditions: 25 cycles at 94° C. denaturation for 20 s, 63° C. annealing for 20 s, 72° C. extension for 1 min; 1 cycle at 72° C. final extension for 10 min. The collagen Type I PCR reaction (sense [NT] ID NO: 3), antisense primer: [NT] […]

## C[C@]12CCC(=O)C=C1CC[C@@H]1[C@@H]2[C@@H](O)C[C@]2(C=O)[C@@H](C(=O)CO)CC[C@@H]12 [aldosterone]
[1]; FIG. 11, vs untreated control
  deposition of collagen (yellow, Movat's pentachrome): increases in deposition
  deposition of elastin (black, Movat's pentachrome): increases in deposition
[1]; superficial and deep portion of scar, 10 days
  elastic fibers (Movat's pentachrome): numerous elastic fibers
[2]
  elastin stained by anti-elastin antibodies: increase in elastin
Collagen type I mRNA
  collagen type I mRNA (relative to GAPDH mRNA): net increase of collagen type I mRNA

— patent US9492462B2, “Composition for elastin production” (HUMAN MATRIX SCIENCES, LLC, priority 2007, dated 2016)
